Data published in patent US20260150841A1, “PYRIDINE COMPOUNDS FOR COMBATTING DIHYDROOROTATE-DEHYDROGENASE INHIBITOR-RESISTANT PHYTOPATHOGENIC FUNGI” (priority 2022, published 2026).
≈ marks a conversion by molar mass, not a printed value. Where two headings read alike, the source gives them in different places.

Experiments:
Assay type in all cases: cell-based
[1] = test system: Botrytis cinerea mutant G111E; assay: Activity against Botrytis cinerea in the microtiter test, mutant G111E; settings: for IC50: Botrytis cinerea, MUTANTG111E, 168 h, read-out: Absolute IC50, G111E, Botrytis cinerea mutant G111E, turbidity at 620 nm after 7 days
From the text: (§1) The active substances were formulated separately as a stock solution in dimethyl sulfoxide (DMSO) at a concentration of 10 000 ppm.
(§2) Spontaneous mutants were selected by plating out B. cinerea spores (in the range of 10^7-10^8) on DOB agar plates (3.4 g/l YNB (Becton Dickinson), 10 g/l Ammoniumsulfat, 40 g/l Glucose, 20 g/l Agar), amended with different lethal concentrations of active ingredient. After 7-14 days growing colonies were transferred to DOB agar plates, amended with the same lethal concentrations of active ingredient and then further propagated on Oatmeal agar medium (50 g/l Oatmeal agar (Sigma), 15 g/l Agar (Difco) for sensitivity testing.
(§3) Fungal strains used: • a) Botrytis cinerea (sensitive, wild-type) • b) Various mutants of Botrytis cinerea
(§4) The spores of Botrytis cinerea were harvested with a cotton swab from an Oatmeal agar plate (50 g/l Oatmealagar (Sigma, Art.O-3506), 15 g/l agar, (Difco) and this is dipped in 3 ml of double concentrated DOB-medium (3.4 g/l YNB (Becton Dickinson), 10 g/l Ammoniumsulfat, 40 g/l Glucose, adjusted to pH 7) and the spore suspension is adjusted to a spore density of 3.2×10^4 spores/ml. The compound solutions were diluted from stock solution in (dimethylsulfoxide) DMSO in several steps with sterile deionized water before use. High test concentrations were 50 mg/L (ppm) or 31 mg/L (ppm). Compound solutions were transferred into empty microplates and filled up with an equal amount of spore suspension.
(§5) The antifungal activity was determined by measuring the turbidity of a culture in 96-well microplates in the presence of test compounds after 7 days incubation at 620 nm. A blank value for each concentration (growth media+compound, without spores) are subtracted from the spore suspension. The relative antifungal activity was calculated by comparing the effect of the test compounds with the effect of a DMSO control The results are shown in Table IV (for compounds of general formula I.A), VI (for compounds of general formula I.B), and VIII (for compounds of general formula I.C).
(§6) A compound showing an IC50 (MUT) above the IC50 (WT) and showing an IC50 (MUT) to IC50 (WT) ratio being in a range above 100 is considered unsuitable (“I”) as DHODH inhibitor.
(§7) The absolute IC50-values (concentration of test compound resulting in 50% inhibition of fungal growth) were calculated from the resulting dose-response for each compound and strain.

[2] = test system: Botrytis cinerea mutant G111V; assay: Activity against Botrytis cinerea in the microtiter test, mutant G111V; settings: for IC50: Botrytis cinerea, MUTANTG111V, 168 h, read-out: Absolute IC50, G111V, Botrytis cinerea mutant G111V, turbidity at 620 nm after 7 days
From the text: as §1, §2, §3, §4, §5, §6, §7

[3] = test system: Botrytis cinerea mutant V195F; assay: Activity against Botrytis cinerea in the microtiter test, mutant V195F; settings: for IC50: Botrytis cinerea, MUTANTV195F, 168 h, read-out: Absolute IC50, V195F, Botrytis cinerea mutant V195F, turbidity at 620 nm after 7 days
From the text: as §1, §2, §3, §4, §5, §6, §7

[4] = test system: Botrytis cinerea (sensitive, wild-type); assay: Activity against Botrytis cinerea in the microtiter test, wild type; settings: turbidity at 620 nm after 7 days; for IC50: 168 h, read-out: Absolute IC50, wild type
Experimental: as §1, §3, §4, §5, §7

[5] = test system: Botrytis cinerea mutant H108P; assay: Activity against Botrytis cinerea in the microtiter test, mutant H108P; settings: for IC50: Botrytis cinerea, MUTANTH108P, 168 h, read-out: Absolute IC50, H108P, Botrytis cinerea mutant H108P, turbidity at 620 nm after 7 days
From the text: as §1, §2, §3, §4, §5, §6, §7

[6] = test system: Botrytis cinerea mutant Y208H; assay: Activity against Botrytis cinerea in the microtiter test, mutant Y208H; settings: for IC50: Botrytis cinerea, MUTANTY208H, 168 h, read-out: Absolute IC50, Y208H, Botrytis cinerea mutant Y208H, turbidity at 620 nm after 7 days
From the text: as §1, §2, §3, §4, §5, §6, §7

[7] = test system: Sclerotinia sclerotiorum (sensitive, wild-type); assay: Activity against Sclerotinia sclerotiorum in tissue culture plate assay with mycelial plugs, wild type; settings: 168 h, % growth after 7 days at 18° C., read-out: Absolute IC50, wild type
Experimental: Fungal strains used: • a) Sclerotinia sclerotiorum (sensitive, wild-type) • b) Mutants of Sclerotinia sclerotiorum
Pure cultures are grown on DOB-agar medium, (3.4 g/l YNB (Becton Dickinson), 10 g/l Ammoniumsulfat, 40 g/l Glucose) for 5-7 days at 18° C. Mycelial plugs (6 mm diame-ter) taken from the margin of the colonies are used as inoculum for the sensitivity test. 500 μl fungicide-amended DOB medium (3.4 g/l YNB (Becton Dickinson), 10 g/l Ammoniumsulfat, 40 g/l Glucose, adjusted to pH 7) are added to each well of 24-well tissue culture plates. Each well is then inoculated with a mycelial plug, with the myce-lium surface up. Two replicate wells are used for each isolate and fungicide concentration. Growth is assed after 7 days incubation at 18° C. in the dark by estimating % growth in the well. IC50-values (concentration of test compound resulting in 50% inhibition of fungal growth) were calculated from the resulting dose-response for each compound and strain.

With Cc1cc(C2=NC3(COC3)Oc3ccccc32)cnc1C [Ex-26] the “Relative antifungal activity expressed as IC50, G111E” value (shortened to “Relative antifungal activity … G111E”) ([1]; {}) was “AA AA AA AA”, the “Relative antifungal activity expressed as IC50, G111V” value (“Relative antifungal activity … G111V” below) ([2]; {}) was “AA AA AA AA” and the “Relative antifungal activity expressed as IC50, V195F” value (“Relative antifungal activity … V195F” below) ([3]; {}) was “AA AA AA AA”.
CCN1c2c(F)cccc2C(c2cnc(C(F)F)c(C)c2)=NC1(C)C [compound 45] gave an IC50 [4] of 0.01 µg/mL (≈ 0.0288 µM), an IC50 [5] of 0.4 µg/mL (≈ 1.15 µM) and an IC50 [1] of 0.57 µg/mL (≈ 1.64 µM). The IC50 [2] was 0.96 µg/mL (≈ 2.76 µM), the IC50 [3] was 0.02 µg/mL (≈ 0.0576 µM) and the IC50 [6] was 0.27 µg/mL (≈ 0.777 µM).
In the case of Cc1cc(C2=NC(C(C)(C)C)Oc3ccccc32)cnc1C (centres unmarked) [Ex-18], the “Relative antifungal activity … G111E” value ([1]; {}) is reported as “AA AA AA AA”, the “Relative antifungal activity … G111V” value ([2]; {}) is reported as “AA AA AA AA” and the “Relative antifungal activity … V195F” value ([3]; {}) is reported as “AA AA AA AA”.
For CC1(C)N=C(c2cnc3c(F)cccc3c2)c2ccccc2OC1(C)C [drawing 163, reference compound], the IC50 ([4]; Botrytis cinerea) was 0.001 µg/mL (≈ 0.00287 µM) and the IC50 [3] was 2.84 µg/mL (≈ 8.15 µM).
CC1(C)N=C(c2cnc3c(F)cccc3c2)c2ccccc2OC1(C)C [drawing 178] was tested, and the IC50 [7] was 2 µg/mL (≈ 5.73 µM).
In the case of Cc1ccc(S(=O)(=O)N2c3ccccc3C(c3cnc(C)c(C)c3)=NC2(C)C)cc1 [compound 42], the “Relative antifungal activity … G111E” value ([1]; {}) is reported as “AA AA AA AA”, the “Relative antifungal activity … G111V” value ([2]; {}) is reported as “AA AA AA AA” and the “Relative antifungal activity … V195F” value ([3]; {}) is reported as “AA AA AA AA”.
For Cc1cc(C2=NC3(CCCC3)Oc3ccccc32)cnc1C(F)F [Ex-24], the IC50 [4] was 0.35 µg/mL (≈ 1.07 µM), the IC50 [5] was 0.98 µg/mL (≈ 2.98 µM) and the IC50 [1] was 15.3 µg/mL (≈ 46.6 µM). The IC50 [2] was 1.31 µg/mL (≈ 3.99 µM) and the IC50 [3] was 0.69 µg/mL (≈ 2.1 µM).
Work on Fc1cccc2cc(C3=NC4(CCCC4)Oc4ccccc43)cnc12 [reference compound] yielded an IC50 ([4]; Botrytis cinerea) of 0.05 µg/mL (≈ 0.15 µM) and an IC50 [3] of 10.9 µg/mL (≈ 32.8 µM).
Work on Cc1cc(C2=NC3(CCC(C)(C)C3)Oc3ccccc32)cnc1C (centres unmarked) [Ex 4] yielded an IC50 [7] of 8.45 µg/mL (≈ 26.4 µM).
With CCC1(CC)N=C(c2cnc(C)c(C)c2)c2ccccc2O1 [Ex 7] the IC50 [7] was 0.23 µg/mL (≈ 0.781 µM).
Work on CCN1c2c(F)cccc2C(c2cnc3c(F)cccc3c2)=NC1(C)C [drawing 175] yielded an IC50 [7] of 0.03 µg/mL (≈ 0.0854 µM).
CCN1c2c(F)cccc2C(c2cnc3c(F)cccc3c2)=NC1(C)C [drawing 141, reference compound] was tested, and the IC50 [4] was 0.02 µg/mL (≈ 0.0569 µM) and the IC50 [3] was over 31 µg/mL.
Cc1cc(C2=NCC(C)(C)Oc3ccccc32)cnc1C [compound 47] was tested, and the IC50 ([4]; Botrytis cinerea) was 0.04 µg/mL (≈ 0.143 µM), the IC50 [5] was 0.83 µg/mL (≈ 2.96 µM) and the IC50 [1] was 2.47 µg/mL (≈ 8.81 µM). The IC50 [2] was 0.55 µg/mL (≈ 1.96 µM), the IC50 [3] was 0.02 µg/mL (≈ 0.0713 µM) and the IC50 [6] was 1.9 µg/mL (≈ 6.78 µM).
Cc1cc(C2=NC3(CCC3)Oc3ccccc32)cnc1C [drawing 125, reference compound] was tested, and the “Absolute IC50, wild type” value [4] was 0.11 ppm, the “Absolute IC50, H108P” value ([5]; {}) was 0.25 ppm and the “Absolute IC50, G111E” value ([1]; {}) was 10.94 ppm. For the same molecule, the “Absolute IC50, G111V” value ([2]; {}) was 0.25 ppm, the “Absolute IC50, V195F” value ([3]; {}) was 2.99 ppm and the “Absolute IC50, Y208H” value ([6]; {}) was 1.43 ppm.
Work on Cc1cc(C2=NC3(CCC3)Oc3ccccc32)cnc1C(F)F [Ex-25, 4-[6-(difluoromethyl)-5-methyl-3-pyridyl]spiro[1,3-benzoxazine-2,1′-cyclobutane]] yielded an IC50 [4] of 0.05 µg/mL (≈ 0.159 µM), an IC50 [5] of 0.02 µg/mL (≈ 0.0636 µM) and an IC50 [2] of 0.03 µg/mL (≈ 0.0954 µM). The IC50 [3] was 0.08 µg/mL (≈ 0.255 µM) and the IC50 [6] was 0.28 µg/mL (≈ 0.891 µM).
Molecule COc1ccc2c(c1)OC(C)(C)N=C2c1cnc2c(F)cccc2c1 [drawing 170] has an IC50 [7] of 0.06 µg/mL (≈ 0.178 µM).
In the case of Cc1cc(C2=NC(C)(C)COc3ccccc32)cnc1C [compound 51], the “Relative antifungal activity … G111V” value ([2]; {}) is reported as “AA AA AA” and the “Relative antifungal activity … V195F” value ([3]; {}) is reported as “AA AA AA”.
